Laboratory results reported in paper PMC6372667 (Experimental & Molecular Medicine, 2019).
Like-named read-outs stand apart in the source and are kept apart here.

How the values were obtained:
[1] = test system: C6 rat glial cells; assay: MTT cytotoxicity assay, C6; assay type: cell-based; conditions: 24 h
Method: (§1) Cytotoxicity was assessed using the MTT assay. Briefly, the cells were seeded into a 96-well plate at a density of 1×10^5 cells per well in 100 µL of corresponding media and incubated at 37 °C in an incubator under 5% CO2 tension for 24 h. The culture media were then replaced with 100 µL of fresh serum-free media in the presence of varied concentrations of pterosin derivatives, and cells were incubated for an additional 24 h. The control was treated with an equal amount of DMSO present in the assay for a 5 mM concentration. Then, 100 µL of MTT solution (0.5 mg/mL in Phosphate Buffered Saline (PBS)) was added to each culture. To measure the proportion of surviving cells, the media were replaced with 100 µL of DMSO 2 h after the administration of MTT solution. The absorbance was measured at 570 nm using a spectrophotometric plate reader (Molecular Devices, Sunnyvale, CA, USA).

[2] = test system: NIH3T3 mouse embryo fibroblasts; assay: MTT cytotoxicity assay, NIH3T3; assay type: cell-based; conditions: 24 h
Method: as §1

[3] = test system: SH-SY5Y human neuroblastoma; assay: MTT cytotoxicity assay, SH-SY5Y; assay type: cell-based; conditions: 24 h
Method: as §1

[4] = molecular target: T1, horse serum BChE (Equus caballus, UniProt P81908); assay: In vitro cholinesterase enzyme assay (Ellman), BChE; assay type: biochemical
T1 construct: horse serum BChE (EC 3.1.1.8); purchased Sigma-Aldrich Co; host or cells: horse serum
Description: (§2) BACE1 (human recombinant β-secretase) ([…]) and the BACE1 FRET (fluorescence resonance energy transfer) assay kit Red were purchased from ThermoFisher Scientific (P2985; Waltham, MA, USA). […] For the cell culture experiment, Dulbecco’s modified Eagle’s medium (DMEM), Opti-MEM, fetal bovine serum (FBS), and penicillin/streptomycin were obtained from Capricorn Scientific (Ebsdorfergrund, Germany). β-secretase inhibitor III (β-SI) was purchased from Calbiochem (Darmstadt, Germany). The protease inhibitor mixture (a mixture of AEBSF, pepstatin A, E-64, bestain, leupeptin, and aprotinin) was purchased from Sigma-Aldrich (St. Louis, MO, USA). Enzyme-linked immunosorbent assay (ELISA) kits for Aβ40 and Aβ42 were obtained from IBL (Kunma, Japan). All chemicals and solvents used were reagent grade, purchased from commercial sources, and used as received.
(§3) The inhibitory activities of pterosin derivatives against cholinesterases were measured using the method developed by Ellman et al.[32]. The reaction mixture contained 140 μL of sodium phosphate buffer (pH 8.0), 20 μL of test sample solution (final concentration of the compound 100 μM), and 20 μL of AChE or BChE solution, mixed and incubated for 15 min at room temperature. […] The reactions were initiated following the addition of 10 μL of DTNB and 10 μL of acetyl thiocholine iodide for the AChE assay or butyryl thiocholine chloride for the BChE assay in 96-well microplates, which were incubated for 15 min.

[5] = molecular target: T2, BACE1 (human recombinant β-secretase) (Homo sapiens, UniProt P56817); assay: In vitro BACE1 FRET enzyme assay; assay type: biochemical; conditions: mean ± S.D. of three experiments
Description: as §2
The BACE1 FRET assay was carried out according to the manufacturer’s instructions with slight modifications as previously described. The assay was performed in a […] black plate using a multi-pipette.

[6] = test system: B16F10 mouse melanoma; assay: MTT cytotoxicity assay, B16F10; assay type: cell-based; conditions: 24 h
Method: as §1

[7] = molecular target: T3, Electric eel AChE (Electrophorus electricus, UniProt O42275); assay: In vitro cholinesterase enzyme assay (Ellman), AChE; assay type: biochemical
T3 construct: purchased Sigma-Aldrich Co
Description: as §2, §3

[8] = test system: SH-SY5Y, C6, NIH3T3 and B16F10 cell lines; assay: MTT cytotoxicity assay, all cell lines tested; assay type: cell-based
Method: as §1

[9] = molecular target: T3, Electric eel AChE; assay: Kinetic analysis of AChE inhibition (Dixon and Lineweaver−Burk plots); assay type: biochemical; conditions: for Inhibition type AChE: Dixon and Lineweaver−Burk plots; for Ki: determined by Dixon plot, read-out: Ki AChE
Method: (§4) The Ki was determined by interpretation of the Dixon plot, with the value of the x-axis intercept taken as −Ki.
Dixon plots for AChE inhibition by pterosin derivatives. (2S,3R)-Pterosin C (A), (2R,3R)-pterosin C (B), and (2R)-pterosin B (C) were tested in the presence of substrate concentrations of 0.1 mM (●), 0.3 mM (○), and 0.6 mM (▼). Lineweaver-Burk plots for AChE inhibition were generated with inhibitor concentrations of 0 µM (Δ), 4 µM (▼), 20 µM (○), and 100 µM (●) for (2S,3R)-pterosin C (D) and (2R,3R)-pterosin C (E); and 0 µM (Δ), 2 µM (▼), 10 µM (○), and 50 µM (●) for (2R)-pterosin B (F).
Dixon plots for AChE inhibition by pteroside derivatives. (2R)-pteroside B (A), (2R,3R)-pteroside C (B), and (3S)-pteroside D (C) were tested in the presence of substrate concentrations of 0.1 mM (●), 0.3 mM (○), and 0.6 mM (▼). Lineweaver-Burk plots for AChE inhibition were generated with inhibitor concentrations of 0 µM (Δ), 0.8 µM (▼), 4 µM (○), and 20 µM (●) for (2R)-pteroside B (D), (2R,3R)-pteroside C (E), and (3S)-pteroside D (F).

[10] = molecular target: T1, horse serum BChE; assay: Kinetic analysis of BChE inhibition (Dixon and Lineweaver−Burk plots); assay type: biochemical; conditions: for Inhibition type BChE: Dixon and Lineweaver−Burk plots; for Ki: determined by Dixon plot, read-out: Ki BChE
Method: as §4
Dixon plots for BChE inhibition by pterosin derivatives. (2S,3R)-Pterosin C (A), (2R,3R)-pterosin C (B), and (2R)-pterosin B (C) were tested in the presence of substrate concentrations of 0.2 mM (●), 0.4 mM (○), and 0.8 mM (▼).
Dixon plots for BChE inhibition by pteroside derivatives. (2R)-pteroside B (A), (2R,3R)-pteroside C (B), and (3S)-pteroside D (C) were tested in the presence of substrate concentrations of 0.2 mM (●), 0.4 mM (○), and 0.8 mM (▼). Lineweaver-Burk plots for BChE inhibition were generated with inhibitor concentrations of 0 µM (Δ), 4 µM (▼), 20 µM (○), and 100 µM (●) for (2R)-pteroside B (D); 0 µM (Δ), 0.8 µM (▼), 4 µM (○), and 20 µM (●) for (2R,3R)-pteroside C (E) and (3S)-pteroside D (F).

[11] = molecular target: T2, BACE1 (human recombinant β-secretase); assay: Kinetic analysis of BACE1 inhibition (Dixon and Lineweaver−Burk plots); assay type: biochemical; conditions: for Inhibition type BACE1: Dixon and Lineweaver−Burk plots; for Ki: determined by Dixon plot, read-out: Ki BACE1
Method: as §4
Dixon plots for BACE1 inhibition by pterosin derivatives.
Dixon plots for BACE1 inhibition by pteroside derivatives.

[12] = in vitro; assay type: in vitro ADME; conditions: for BBB permeation class: classified by Pe, given in words; for Papp at 4 h, 25 µg/mL: pig, PAMPA, pH 7.4, 25 °C, mean ± SD of quadruple experiments, read-out: PAMPA-BBB permeability Pe
Method: PAMPA (parallel artificial membrane permeation assay) was used as a high-throughput assay to predict BBB permeation. Porcine polar brain lipid (PBL) was used as an artificial membrane to predict BBB permeation. Initially, the test compound was dissolved in DMSO at 5 mg/mL. This compound stock solution (10 µL) was diluted 200-fold in a universal buffer at pH 7.4 and mixed with a multi 8-channel pipette to obtain the secondary stock solution (final concentration 25 µg/mL). The secondary stock solution (200 µL) was placed in the donor wells. The filter membrane was coated with PBL in dodecane (4 mL volume of 20 mg/mL PBL in dodecane), and 5 µL of BBB-1 lipid solution was spread on PBL by pipette. The acceptor well was filled with […] of Acceptor Sink Buffer. The acceptor filter plate was cautiously positioned on the donor plate to assemble a “sandwich” (comprising an aqueous acceptor, artificial lipid membrane and aqueous donor with test compound on the top, middle and bottom, respectively). The test compound diffuses from the donor well to the acceptor well through the lipid membrane. After 4 h of incubation at pH 7.4 and 25 °C, the concentration of the compound in the acceptor, donor, reference and blank wells was estimated with a UV plate reader, Epoch Microplate Spectrophotometer (BioTek Instruments, Inc., Winooski, VT, USA). […] Samples were analyzed in quadruplets, and the average of the four runs was reported. To monitor the consistency of the analysis set, quality control standards were run with each sample set.
PAMPA-BBB, an in vitro artificial membrane permeability assay for the BBB, is one of the most reliable physicochemical screening tools in the early stage discovery of CNS-targeted drugs. The PAMPA-BBB system models the transcellular passive diffusion of chemicals across the BBB and measures strictly passive transport mechanisms via an artificial lipid membrane on effective permeability (Pe, cm/s).

[13] = molecular target: BACE1; conditions: cited from earlier work
[14] = parameters: method as in PMID 23565574; conditions: PAMPA-BBB ref 49; cited from earlier work
[15] = test system: AChE; conditions: cited from earlier work
[16] = test system: aged triple transgenic mouse models of AD (3xTg-AD); conditions: 25 mg/kg i.p. every 48 h for 3 months, mice 21–24 months old ref 48; cited from earlier work
[17] = test system: BChE; parameters: method as in PMID 18274286; conditions: cited from earlier work
[18] = test system: mouse models of diabetes; parameters: method as in PMID 23069626; conditions: cited from earlier work
[19] = test system: mouse model of osteoarthritis; parameters: method as in PMID 27009967; conditions: 15 μL of 900 μM intra-articular, three times per week, 8–13 weeks ref 28; cited from earlier work
[20] = mean ± S.D. of three experiments, read-out: IC50 BChE
[21] = mean ± S.D. of three experiments, read-out: IC50 AChE
[22] = oral 100 mg/kg/day for 4 weeks ref 29, 30

T3 sequence (O42275 24-633): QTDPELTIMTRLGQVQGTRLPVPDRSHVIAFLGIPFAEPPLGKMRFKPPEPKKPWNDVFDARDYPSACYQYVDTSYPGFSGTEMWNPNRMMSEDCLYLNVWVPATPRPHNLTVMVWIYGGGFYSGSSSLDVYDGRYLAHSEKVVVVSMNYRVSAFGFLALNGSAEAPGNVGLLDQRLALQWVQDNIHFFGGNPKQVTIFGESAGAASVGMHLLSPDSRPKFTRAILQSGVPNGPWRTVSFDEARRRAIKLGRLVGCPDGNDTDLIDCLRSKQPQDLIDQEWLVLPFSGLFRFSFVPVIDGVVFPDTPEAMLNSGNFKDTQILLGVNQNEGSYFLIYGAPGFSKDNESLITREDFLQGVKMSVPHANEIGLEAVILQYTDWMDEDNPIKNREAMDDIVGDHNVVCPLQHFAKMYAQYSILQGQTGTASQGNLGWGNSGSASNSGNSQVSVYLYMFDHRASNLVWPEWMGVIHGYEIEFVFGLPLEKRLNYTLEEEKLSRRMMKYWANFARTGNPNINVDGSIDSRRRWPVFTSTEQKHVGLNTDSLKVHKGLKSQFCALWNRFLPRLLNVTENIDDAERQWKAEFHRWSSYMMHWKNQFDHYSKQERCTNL
T2 sequence (P56817 46-501): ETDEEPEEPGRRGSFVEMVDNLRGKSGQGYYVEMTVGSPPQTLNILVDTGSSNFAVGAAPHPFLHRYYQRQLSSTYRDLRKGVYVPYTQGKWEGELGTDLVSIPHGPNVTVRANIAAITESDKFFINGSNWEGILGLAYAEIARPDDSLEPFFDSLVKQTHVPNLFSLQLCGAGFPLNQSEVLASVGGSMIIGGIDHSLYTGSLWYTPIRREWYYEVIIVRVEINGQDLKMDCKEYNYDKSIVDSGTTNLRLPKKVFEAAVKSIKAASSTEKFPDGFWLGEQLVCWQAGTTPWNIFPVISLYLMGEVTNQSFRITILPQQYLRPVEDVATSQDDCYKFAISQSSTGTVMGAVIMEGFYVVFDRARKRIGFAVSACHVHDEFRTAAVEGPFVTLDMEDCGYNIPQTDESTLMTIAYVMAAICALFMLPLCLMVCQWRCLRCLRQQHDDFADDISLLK
T1 sequence (P81908 whole entry): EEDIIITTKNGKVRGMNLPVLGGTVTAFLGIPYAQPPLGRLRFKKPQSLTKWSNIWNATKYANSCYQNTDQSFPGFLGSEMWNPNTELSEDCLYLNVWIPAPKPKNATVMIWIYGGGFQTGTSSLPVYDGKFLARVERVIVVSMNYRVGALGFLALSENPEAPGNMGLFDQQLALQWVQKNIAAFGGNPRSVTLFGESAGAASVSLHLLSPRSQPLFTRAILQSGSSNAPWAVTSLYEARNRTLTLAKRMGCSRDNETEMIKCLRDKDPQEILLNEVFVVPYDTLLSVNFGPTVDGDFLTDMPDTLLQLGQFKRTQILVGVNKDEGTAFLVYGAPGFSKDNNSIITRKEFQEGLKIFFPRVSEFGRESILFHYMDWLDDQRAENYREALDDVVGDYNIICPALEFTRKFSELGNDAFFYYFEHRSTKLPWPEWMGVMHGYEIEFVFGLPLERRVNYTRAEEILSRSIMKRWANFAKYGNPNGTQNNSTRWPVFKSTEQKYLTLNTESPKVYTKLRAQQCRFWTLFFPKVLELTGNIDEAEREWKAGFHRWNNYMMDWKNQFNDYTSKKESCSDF

Compound	LD50 Based on MTT Assay, C6 [1]	LD50 Based on MTT Assay, NIH3T3 [2]	LD50 Based on MTT Assay, SY-SY5Y [3]	IC50 [4, 20] [µM]	IC50 [5] [µM]	LD50 Based on MTT Assay, B16F10 [6]	IC50 [7, 21] [µM]	LD50, cell lines tested [8]	BBB permeation class ([12]; PAMPA-BBB)	other results
Cc1cc2c(c(C)c1CCO)C(=O)C(C)(C)C2O (stereo in doubt) [(3R)-Pterosin D, (3R)-pterosin D]	>5,000 µM	>5,000 µM	>5,000 µM	> 125	92.5 ± 7	>5,000 µM	68.7 ± 3.7	above 5 mM	–	IC50 BChE ([4]; mean ± S.D. of three experiments): inactive at the concentrations tested
Cc1cc2c(c(C)c1CCOC1OC(CO)C(O)C(O)C1O)C(=O)C(C)C2 [(2R)-Pteroside B, (2R)-pteroside B]	>5,000 µM	>5,000 µM	>5,000 µM	62 ± 0.71	18 ± 2.8	>5,000 µM	2.55 ± 0.23	above 5 mM	very low BBB permeability	Inhibition type AChE [9]: Mixed-type; Ki [9]: 4.89 µM; Inhibition type BChE [10]: Mixed-type; Ki [10]: 22.6 µM; Inhibition type BACE1 [11]: Noncompetitive; Ki [11]: 23.1 µM; Papp at 4 h, 25 µg/mL [12]: 0.48 ± 0.29 ×10⁻⁶ cm/s
Cc1cc2c(c(C)c1CCOC1OC(CO)C(O)C(O)C1O)C(=O)C(C)(CO)C2 [(2S)-Pteroside A, (2S)-pteroside A]	>5,000 µM	>5,000 µM	>5,000 µM	–	84.6 ± 6	>5,000 µM	–	above 5 mM	–	–
Cc1c(CCO)c(CO)cc2c1C(=O)[C@@H](C)C2 [(2S)-Pterosin P, (2S)-pterosin P]	>5,000 µM	>5,000 µM	>5,000 µM	–	67.1 ± 7.7	>5,000 µM	–	above 5 mM	high BBB permeation	log Pe ([12]; PAMPA-BBB): -5.10; Papp at 4 h, 25 µg/mL [12]: 7.92 ± 0.36 ×10⁻⁶ cm/s; IC50 [4]: 55.9 ± 5.6 µM; IC50 [7]: 17.8 ± 0.62 µM
Cc1cc2c(c(C)c1CCOC1OC(CO)C(O)C(O)C1O)C(=O)C(C)(C)C2O [(3S)-Pteroside D, (3S)-pteroside D]	>5,000 µM	>5,000 µM	1,320 ± 86 µM	19.3 ± 0.17	10.7 ± 1.5	>5,000 µM	27.4 ± 1.2	–	very low BBB permeability	Inhibition type AChE [9]: Mixed-type; Ki [9]: 23.1 µM; Inhibition type BChE [10]: Mixed-type; Ki [10]: 19.7 µM; Inhibition type BACE1 [11]: Mixed-type; Ki [11]: 16.5 µM
CC#Cc1cncc(-c2ccc3c(c2)[C@@]2(N=C(C)C(N)=N2)[C@]2(CC[C@H](OC)CC2)C3)c1 [AZD3293]	–	–	–	–	–	–	–	–	–	Ki [13]: 0.0004 µM
O=c1c(O)c(-c2ccc(O)c(O)c2)oc2cc(O)cc(O)c12 [Quercetin, quercetin]	–	–	–	–	–	–	–	–	–	log Pe [14]: approximately −7; IC50 [15]: […]; Effect on AD pathology [16]: effectively ameliorated AD pathology and tauopathy; Influence on BChE activity [17]: negligible influence
Cc1cc2c(c(C)c1CCO)C(=O)C(C)(CO)C2 (stereo not drawn) [pterosin A]	–	–	–	–	–	–	–	–	–	Oral bioavailability ([18]; diabetes animal experiment ref 29, 30): good oral bioavailability; Adverse effects [18, 22]: no significant adverse effects; Effect on glucose intolerance and insulin resistance [18, 22]: effectively improving glucose intolerance and insulin resistance
Cc1cc2c(c(C)c1CCO)C(=O)[C@H](C)C2 [pterosin B]	–	–	–	–	–	–	–	–	–	Adverse effects [19]: without adverse effects; Effect on osteoarthritis [19]: ameliorating osteoarthritis
